The source of these data is patent US9611276B2, “Imidazo bicyclic iminium compounds as antitumor agents” (THE BOARD OF TRUSTEES OF THE LELAND STANFORD JUNIOR …, priority 2012, dated 2017).

The subject of the assay is Hh pathway activity. The assay can be described thus: Shh-LIGHT2 cell assay with ShhN-conditioned medium. In kind it is cell-based. How it is done: Shh-LIGHT2 cells [see Taipale et al. Nature. 2000; 406(6799):1005-9], an NIH-3T3-based cell line containing a stably integrated Gli-responsive firefly luciferase reporter (8XGliBS-FL) and constitutive Renilla luciferase reporter (pRLTK, Promega), were cultured in DMEM (Invitrogen, 11965) containing 10% (v/v) calf serum [the American Type Culture Collection (ATCC), 30-2030], 150 μg/mL zeocin (Invitrogen, R250-01), 400 μg/mL G418 (Invitrogen, 11811), 1 mM sodium pyruvate (Invitrogen, 11360) and 1× PenStrep.
All test compounds were dissolved in DMSO at 50 mM, serially diluted by 1:3, 1:4 or 1:5 in a 96-well translucent microplate (Greiner bio-one, 650201) and stored at −20° C. These serial dilutions were added to assay media freshly with final DMSO concentration of 0.2% (v/v).
The Shh-LIGHT2 cell assay provides a measure of Hh pathway activity. ShhN-conditioned medium was prepared by culturing a Shh-N-producing HEK 293 cell line [see Chen et al. Proc Natl Acad Sci USA. […] The cells were lysed with passive lysis buffer (50 μL/well), and 10 μL of the obtained lysate were analyzed for firefly and Renilla luciferase activities using Dual-Luciferase Reporter Assay System (Promega, E1960) (50 μL/well of each reagent) on a microplate luminometer (Veritas). Biological triplicates were analyzed for each test compounds.

By IC50 is commonly meant the concentration that inhibits the measured activity by half. `CCOc1ccc(-[n+]2cc(-c3ccc(Br)cc3)n3c2CCCCC3)cc1` [Compound A-1]: the “Inhibition of Hh pathway activity” value (Shh-LIGHT2 cells stimulated with ShhN) was “inhibits Hh pathway activity”. Besides, for the setting “Shh-LIGHT2 w/ ShhN, read-out: IC50, firefly luciferase”, the IC50 was found to be 6.6 µM.
